Measurements from US11753407B2, “Compounds for treating spinal muscular atrophy” (PTC Therapeutics, Inc., priority 2012, dated 2023).

Legend:
[1] = tested on: SMN2 mRNA in GM03813 SMA patient cells; assay: Endogenous SMN2 mRNA end-point semi-quantitative RT-PCR splicing assay in cultured cells; format: cell-based, human; conditions: Type 1 SMA patient fibroblasts, increasing concentrations, 24 hr, end-point RT-PCR (FIG. 5)
Description: The endpoint reverse transcription-PCR splicing assay is used to visualize and quantify the levels of the full length and Δ7 SMN2 mRNA in primary cells and cell lines containing the SMN2 gene treated with a test compound.
Protocol. GM03813 SMA patient cells (5,000 cells/well) are seeded in 200 μL of cell culture medium (DMEM plus 10% FBS) in 96-well flat-bottom plates and the plate is immediately swirled to ensure proper dispersal of cells, forming an even monolayer of cells. Cells are allowed to attach for at least 4-6 hrs. Test compounds are serially diluted 3.16-fold in 100% DMSO to generate a 7-point concentration curve. A solution of test compound (1 μL, 200× in DMSO) is added to each test well and 1 μL DMSO is added to each control well. The plate is incubated for 24 hrs in a cell culture incubator (37° C., 5% CO2, 100% relative humidity). The cells are then lysed in Cells-To-Ct lysis buffer and the lysate is stored at −80° C.
SMN FL and Δ7 mRNA are identified using the following primers in Table 6. These primers hybridize to a nucleotide sequence in exon 6 (SMN Forward C, SEQ ID NO. 11) (nucleotide 43 to nucleotide 63) and exon 8 (SMN Reverse C, SEQ ID NO. 12) (nucleotide 51 to nucleotide 73) common to human SMN1 and SMN2 mRNA. Since the SMA patient cells used in Example 4 contain only the SMN2 gene, RT-PCR can visualize and quantify only SMN2 full-length and SMN2 Δ7 mRNA.
To synthesize cDNA, 5 μL of lysate, 4 μL of 5× iScript reaction mix, 1 μL of reverse transcriptase, and 10 μL of water are combined and incubated 5 min at 25° C. followed by 30 min at 42° C., followed by 5 min at 85° C. The cDNA solution is stored at −20° C.
To perform endpoint PCR, 5 μL of cDNA, 0.2 μL of 100 μM forward primer, 0.2 μL of 100 μM reverse primer, and 22.5 μL of polymerase super mix are combined in a 96 well semiskirted PCR plate. PCR is carried out at the following temperatures for the indicated time: Step 1: 94° C. (2 min), Step 2: 94° C. (30 sec), Step 3: 55° C. (30 sec), Step 4: 68° C. (1 min), then repeat Steps 2 to 4 for a total of 33 cycles, then hold at 4° C.
10 μL of each PCR sample is electrophoretically separated on a 2% agarose E-gel for 14 minutes stained with double-stranded DNA (dsDNA) staining reagents (e.g., ethidium bromide) and visualized using a gel imager.

[2] = tested on: Smn protein produced from the SMN2 gene; assay: Smn protein assay in tissues of adult C/C-allele SMA mice; format: in vivo; conditions: brain, spinal cord, muscle
Description: This Smn protein assay compares tissues from test compound treated mice with those from DMSO vehicle treated mice to determine the increase in levels of Smn protein produced from the human SMN2 gene.
Protocol. The tissue samples in Safe-Lock tubes are weighed and the volume of RIPA buffer containing the protease inhibitor cocktail is added based on the weight to volume ratios for each type of tissue: Brain (50 mg/mL), Muscle (50 mg/mL) and Spinal Cord (25 mg/mL).
Tissues are homogenized using the TissueLyzer by bead milling. 5 mm stainless steel beads are added to the sample and shaken vigorously for 5 minutes at 30 Hz in the TissueLyzer. […] Fluorescence for each well of the plate at 665 nm and 620 nm is measured on an EnVision multilabel plate reader (Perkin-Elmer). The total protein in the tissue homogenate is measured using the BCA assay according to the manufacturer's protocol.
The normalized fluorescence signal is calculated for each sample, Blank and vehicle control well by dividing the signal at 665 nm by the signal at 620 nm. Normalizing the signal accounts for possible fluorescence quenching due to the matrix effect of the tissue homogenate. […] The ΔF value for each tissue sample well is divided by the total protein quantity (determined using the BCA assay) for that tissue sample. […]

[3] = Body weight of neonatal Δ7 SMA mice; format: in vivo; conditions: neonatal SMA Δ7 homozygous knockout mice
Description: The change in body weight of neonatal SMA mice is used to determine whether treatment with a test compound improves body weight.
Protocol. SMA Δ7 homozygous knockout mice are dosed intraperitoneally (IP) with test compound or vehicle (100% DMSO) QD from PND 3 until the dose regimen is switched to an oral dose BID in 0.5% hydroxypropylmethyl cellulose (HPMC) with 0.1% Tween-80 at a dose 3.16-fold higher than the dose used for IP. Body weights of SMA Δ7 mice treated with test compound or vehicle and age matched heterozygous mice are recorded every day.

SMILES | SMN2 FL mRNA [1] | SMN2 Δ7 mRNA [1] | total protein-normalized Smn level ([2]; 100 mg/kg BID for 10 days, relative to vehicle group (FIG. 11a)) | body weight ([3]; IP QD PND 3 to PND 30, then orally BID from PND 31 until study end (FIG. 13a)) | total protein-normalized Smn level ([2]; 10 mg/kg BID for 10 days, relative to vehicle group (FIG. 11b)) | body weight ([3]; IP QD PND 3 to PND 23, then orally BID from PND 24 until study end (FIG. 13b))
COc1ccc(-c2cc(=O)n3cc(N4CCNCC4)ccc3n2)cc1OC [Cpd 6, 2-(3,4-dimethoxyphenyl)-7-(piperazin-1-yl)-4H-pyrido[1,2-a]pyrimidin-4-one] | progressively more SMN2 FL mRNA | less SMN2 Δ7 mRNA | increased in brain, spinal cord, and muscle tissues | improved compared to vehicle treated mice | – | –
Cc1cn2nc(-c3cc(=O)n4cc(N5CCN(C)CC5)ccc4n3)cc2c(C)n1 [Cpd 170, 2-(4,6-dimethylpyrazolo[1,5-a]pyrazin-2-yl)-7-(4-methylpiperazin-1-yl)-4H-pyrido[1,2-a]pyrimidin-4-one] | progressively more SMN2 FL mRNA | less SMN2 Δ7 mRNA | – | – | increased in brain, spinal cord, and muscle tissues | improved compared to vehicle treated mice
